According to patent US12479830B2, “Homopiperazinyl and homopiperidinyl quinazolin-4(3H)-one derivatives having multimodal activity against pain” (ESTEVE PHARMACEUTICALS, S.A., priority 2019, dated 2025):

Experiments:
Human σ1 receptor = biological target: T1, Human σ1 receptor (Homo sapiens, UniProt Q99720); experiment: Human σ1 receptor radioligand assay ([3H](+)-pentazocine binding); settings: binding to the σ1 receptor, expressed as Ki class; + also covers inhibition between 1% and 50%
T1 construct: expressed in transfected cells; host or cells: HEK-293
Method: Human σ1 Receptor Radioligand Assay
Transfected HEK-293 membranes (7 μg) were incubated with 5 nM of [^3H](+)-pentazocine in assay buffer containing Tris-HCl 50 mM at pH 8. NBS (non-specific binding) was measured by adding 10 μM haloperidol. The binding of the test compound was measured at either one concentration (% inhibition at 1 or 10 μM) or five different concentrations to determine affinity values (Ki). Plates were incubated at 37° C. for 120 minutes. After the incubation period, the reaction mix was then transferred to MultiScreen HTS, FC plates (Millipore), filtered and plates were washed 3 times with ice-cold 10 mM Tris-HCL (pH7.4). Filters were dried and counted at approximately 40% efficiency in a MicroBeta scintillation counter (Perkin-Elmer) using EcoScint liquid scintillation cocktail.

[1] = biological target: Human α2δ-1 subunit of Cav2.2 calcium channel (Homo sapiens, UniProt P54289); experiment: Human α2δ-1 subunit of Cav2.2 calcium channel assay ([3H]-gabapentin binding); settings: binding to the α2δ-1 subunit of voltage-gated calcium channels, expressed as Ki class; + also covers inhibition between 1% and 50%
Method: Human α2δ-1 Subunit of Cav2.2 Calcium Channel Assay
Human α2δ-1 enriched membranes (2.5 μg) were incubated with 15 nM of radiolabeled [^3H]-Gabapentin in assay buffer containing Hepes-KOH 10 mM. pH 7.4. NSB (non specific binding) was measured by adding 10 μM pregabalin. The binding of the test compound was measured at either one concentration (% inhibition at 1 or 10 μM) or five different concentrations to determine affinity values (Ki). After 60 min incubation at 27° C., binding reaction was terminated by filtering through Multiscreen GF/C (Millipore) presoaked in 0.5% polyethyleneimine in Vacuum Manifold Station, followed by 3 washes with ice-cold filtration buffer containing 50 mM Tris-HCl, pH 7.4. Filter plates were dried at 60° C. for 1 h and 30 μL of scintillation cocktail were added to each well before radioactivity reading. Readings were performed in a Trilux 1450 Microbeta radioactive counter (Perkin Elmer).

T1 sequence (Q99720 whole entry): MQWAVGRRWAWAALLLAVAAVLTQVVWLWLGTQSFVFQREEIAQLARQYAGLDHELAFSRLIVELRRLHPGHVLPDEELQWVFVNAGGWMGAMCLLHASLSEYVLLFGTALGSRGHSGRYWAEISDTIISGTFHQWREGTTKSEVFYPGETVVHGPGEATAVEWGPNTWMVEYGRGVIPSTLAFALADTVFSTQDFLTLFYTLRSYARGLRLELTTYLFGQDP
Sequence of Human α2δ-1 subunit of Cav2.2 calcium channel (P54289 25-1103): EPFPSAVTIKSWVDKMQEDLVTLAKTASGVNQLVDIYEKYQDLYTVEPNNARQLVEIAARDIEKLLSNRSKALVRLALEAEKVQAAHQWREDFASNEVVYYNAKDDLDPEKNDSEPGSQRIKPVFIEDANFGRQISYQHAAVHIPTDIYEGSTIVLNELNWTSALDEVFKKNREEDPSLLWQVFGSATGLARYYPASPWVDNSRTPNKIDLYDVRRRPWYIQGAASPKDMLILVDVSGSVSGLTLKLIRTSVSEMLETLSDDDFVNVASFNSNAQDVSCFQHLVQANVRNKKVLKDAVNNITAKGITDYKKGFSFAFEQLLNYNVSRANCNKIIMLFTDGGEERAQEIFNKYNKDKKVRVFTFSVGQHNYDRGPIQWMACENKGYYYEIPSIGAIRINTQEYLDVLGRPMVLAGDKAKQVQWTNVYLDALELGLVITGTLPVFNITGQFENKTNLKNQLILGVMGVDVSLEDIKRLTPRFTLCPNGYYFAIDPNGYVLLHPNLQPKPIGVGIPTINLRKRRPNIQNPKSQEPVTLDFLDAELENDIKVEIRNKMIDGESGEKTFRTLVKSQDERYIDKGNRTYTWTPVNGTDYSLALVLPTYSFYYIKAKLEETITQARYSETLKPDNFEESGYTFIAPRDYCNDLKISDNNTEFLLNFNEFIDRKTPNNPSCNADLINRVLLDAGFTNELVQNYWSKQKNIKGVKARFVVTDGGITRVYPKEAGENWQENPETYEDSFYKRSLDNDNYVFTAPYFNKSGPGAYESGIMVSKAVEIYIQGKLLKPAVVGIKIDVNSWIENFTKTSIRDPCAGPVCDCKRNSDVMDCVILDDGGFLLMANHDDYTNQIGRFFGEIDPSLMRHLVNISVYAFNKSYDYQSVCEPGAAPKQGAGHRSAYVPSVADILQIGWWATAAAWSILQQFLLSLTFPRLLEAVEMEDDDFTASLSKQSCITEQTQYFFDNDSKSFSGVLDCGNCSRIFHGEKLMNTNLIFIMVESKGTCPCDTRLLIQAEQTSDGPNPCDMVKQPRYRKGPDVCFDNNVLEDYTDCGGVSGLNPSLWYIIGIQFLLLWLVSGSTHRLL

| Compound | Ki (Human σ1 receptor) [nM] | Ki [1] [nM] |
| --- | --- | --- |
| CCCC(c1nc2c(Cl)cc(F)cc2c(=O)n1CC)N1CCCN(CC)CC1 (stereo not shown) [Example 65, 8-chloro-3-ethyl-2-(1-(4-ethyl-1,4-diazepan-1-yl)butyl)-6-fluoroquinazolin-4(3H)-one] | > 1000 | > 5000 |
| CCC[C@@H](c1nc2ccc(Br)cc2c(=O)n1CC)N1CCN(C)C[C@H](C)C1 [Example 37, 6-bromo-2-((S)-1-((S)-4,6-dimethyl-1,4-diazepan-1-yl)butyl)-3-ethylquinazolin-4(3H)-one] | > 1000 | > 5000 |
| CCC[C@@H](c1nc2ncc(Br)cc2c(=O)n1CC)N1CCN(C)C[C@H](C)C1 [Example 188, 6-bromo-2-((S)-1-((S)-4,6-dimethyl-1,4-diazepan-1-yl)butyl)-3-ethylpyrido[2,3-d]pyrimidin-4(3H)-one] | > 1000 | > 5000 |
| CCC[C@@H](c1nc2ccncc2c(=O)n1CC)N1CCCN(C)CC1 [Example 174, (S)-3-ethyl-2-(1-(4-methyl-1,4-diazepan-1-yl)butyl)pyrido[4,3-d]pyrimidin-4(3H)-one] | > 1000 | > 5000 |
| CCC[C@H](c1nc2ccc(Cl)cc2c(=O)n1CC)N1CCN(C)C[C@H](C)C1 [Example 75, 6-chloro-2-((R)-1-((S)-4,6-dimethyl-1,4-diazepan-1-yl)butyl)-3-ethylquinazolin-4(3H)-one] | 500 to 1000 | < 500 |
| CCC[C@H](c1nc2ncc(Br)cc2c(=O)n1CC)N1CCN(C)C[C@H](C)C1 [Example 187, 6-bromo-2-((R)-1-((S)-4,6-dimethyl-1,4-diazepan-1-yl)butyl)-3-ethylpyrido[2,3-d]pyrimidin-4(3H)-one] | > 1000 | < 500 |
| CCC[C@H](c1nc2cc(Cl)c(Cl)cc2c(=O)n1CC)N1CCNC[C@H](C)C1 [Example 109, 6,7-Dichloro-3-ethyl-2-((R)-1-((S)-6-methyl-1,4-diazepan-1-yl)butyl)quinazolin-4(3H)-one] | > 1000 | < 500 |
| CCCC(c1nc2c(F)cc(Br)cc2c(=O)n1CC)N1CCCN(C)CC1 (stereo not shown) [Example 40, 6-bromo-3-ethyl-8-fluoro-2-(1-(4-methyl-1,4-diazepan-1-yl)butyl)quinazolin-4(3H)-one] | 500 to 1000 | < 500 |
| CCC[C@@H](c1nc2ncc(Br)cc2c(=O)n1CC)N1CCNC[C@@H](C)C1 [Example 198, 6-bromo-3-ethyl-2-((S)-1-((R)-6-methyl-1,4-diazepan-1-yl)butyl)pyrido[2,3-d]pyrimidin-4(3H)-one] | > 1000 | > 5000 |
| CC[C@@H]1CCn2c(nc3ccc(Br)cc3c2=O)[C@H]1N1CCCN(C)CC1 [Example 269, (6S,7R)-2-Bromo-7-ethyl-6-(4-methyl-1,4-diazepan-1-yl)-8,9-dihydro-6H-pyrido[2,1-b]quinazolin-11(7H)-one] | 500 to 1000 | > 5000 |
| CCC[C@@H](c1nc2cc(F)c(Br)cc2c(=O)n1CC)N1CCN(C)C[C@@H](C)C1 [Example 129, 6-bromo-2-((S)-1-((R)-4,6-dimethyl-1,4-diazepan-1-yl)butyl)-3-ethyl-7-fluoroquinazolin-4(3H)-one] | > 1000 | 500 to 5000 |
| CCCC(c1nc2ncc(Br)cc2c(=O)n1CC)N1CCCN(C)CC1 (stereo not shown) [Example 175, 6-Bromo-3-ethyl-2-(1-(4-methyl-1,4-diazepan-1-yl)butyl)pyrido[2,3-d]pyrimidin-4(3H)-one] | > 1000 | < 500 |
| CCC[C@H](c1nc2ccc(Br)cc2c(=O)n1CCC)N1CCNC[C@@H](C)C1 [Example 68, 6-bromo-2-((R)-1-((R)-6-methyl-1,4-diazepan-1-yl)butyl)-3-propylquinazolin-4(3H)-one] | > 1000 | < 500 |

Next, values leading:

| Ki (Human σ1 receptor) [nM] | Ki [1] [nM] | Compound |
| --- | --- | --- |
| 500 to 1000 | 500 to 5000 | CCCC(c1nc2ccc(Br)cc2c(=O)n1CC)N1CCNCC(C)(C)C1 (stereo not shown) [Example 28, 6-bromo-2-(1-(6,6-dimethyl-1,4-diazepan-1-yl)butyl)-3-ethylquinazolin-4(3H)-one] |
| < 500 | < 500 | CCC[C@H](c1nc2cc(F)c(F)cc2c(=O)n1CC)N1CCCN(C)CC1 [Example 232, (R)-3-ethyl-6,7-difluoro-2-(1-(4-methyl-1,4-diazepan-1-yl)butyl)quinazolin-4(3H)-one] |
| 500 to 1000 | > 5000 | CCC[C@@H](c1nc2c(F)cc(Br)cc2c(=O)n1CC)N1CCCN(C)CC1 [Example 162, (S)-6-bromo-3-ethyl-8-fluoro-2-(1-(4-methyl-1,4-diazepan-1-yl)butyl)quinazolin-4(3H)-one] |
| < 500 | < 500 | CCC[C@H](c1nc2ccc(F)cc2c(=O)n1CC(C)C)N1CCCN(CC)CC1 [Example 215, (R)-2-(1-(4-ethyl-1,4-diazepan-1-yl)butyl)-6-fluoro-3-isobutylquinazolin-4(3H)-one] |
| 500 to 1000 | < 500 | CCCC(c1nc2ccc(Cc3ccccc3)cc2c(=O)n1CC)N1CCCN(C)CC1 (stereo not shown) [Example 207, 6-Benzyl-3-ethyl-2-(1-(4-methyl-1,4-diazepan-1-yl)butyl)quinazolin-4(3H)-one] |
| 500 to 1000 | < 500 | CCC[C@H](c1nc2c(F)cc(Cl)cc2c(=O)n1CC)N1CCCN(C)CC1 [Example 234, (R)-6-chloro-3-ethyl-8-fluoro-2-(1-(4-methyl-1,4-diazepan-1-yl)butyl)quinazolin-4(3H)-one] |
| 500 to 1000 | < 500 | CCC[C@H](c1nc2cc(F)c(Br)cc2c(=O)n1CC)N1CCNC[C@H](C)C1 [Example 96, 6-Bromo-3-ethyl-7-fluoro-2-((R)-1-((S)-6-methyl-1,4-diazepan-1-yl)butyl)quinazolin-4(3H)-one] |
| < 500 | 500 to 5000 | CCCC(c1nc2cccc(Br)c2c(=O)n1CC)N1CCCN(C)CC1 (stereo not shown) [Example 53, 5-bromo-3-ethyl-2-(1-(4-methyl-1,4-diazepan-1-yl)butyl)quinazolin-4(3H)-one] |
| < 500 | > 5000 | CCCC(c1nc2ccc(Br)cc2c(=O)n1CC)N1CCCN(Cc2ccccc2)CC1 (stereo not shown) [Example 6, 2-(1-(4-benzyl-1,4-diazepan-1-yl)butyl)-6-bromo-3-ethylquinazolin-4(3H)-one] |
| < 500 | < 500 | CCCC(c1nc2cc(F)c(Cl)cc2c(=O)n1CC)N1CCCN(C)CC1 (stereo not shown) [Example 89, 6-chloro-3-ethyl-7-fluoro-2-(1-(4-methyl-1,4-diazepan-1-yl)butyl)quinazolin-4(3H)-one] |
| < 500 | > 5000 | CCC[C@H](c1nc2ccc(F)cc2c(=O)n1CCC(C)C)N1CCCN(CC)CC1 [Example 221, (R)-2-(1-(4-ethyl-1,4-diazepan-1-yl)butyl)-6-fluoro-3-isopentylquinazolin-4(3H)-one] |
| < 500 | < 500 | CCC[C@H](c1nc2ccc(F)cc2c(=O)n1CC1CC1)N1CCCN(C)CC1 [Example 219, (R)-3-(cyclopropylmethyl)-6-fluoro-2-(1-(4-methyl-1,4-diazepan-1-yl)butyl)quinazolin-4(3H)-one] |
| < 500 | < 500 | CCCC(c1nc2cc(F)c(Br)cc2c(=O)n1CC)N1CCCN(C)CC1 (stereo not shown) [Example 13, 6-bromo-3-ethyl-7-fluoro-2-(1-(4-methyl-1,4-diazepan-1-yl)butyl)quinazolin-4(3H)-one] |
